Assay results reported in patent US6469010B1, “Medicament for the alleviation or treatment of symptom derived from the ischemic disease and compound useful thereof” (Suntory Limited, priority 1995, dated 2002).

Key:
DBA/2N mice = assay: Audiogenic seizure suppressing action; format: in vivo; conditions: Mus musculus, ip, 20 min; compound 10 mg/kg, i.p.; audio stimulus after 20 minutes; suppression of average seizure score; read-out: Antiseizure action (suppression rate %)
Method: Audiogenic Seizure Suppressing Action
The audiogenic seizure suppressing action of the compounds was evaluated by the method of Sarro et al. [G. B. De Sarro et al.; Br. J. Pharmacol., 93, 247 (1988)]. That is, DBA/2N mice (male, 3 weeks) were administered with the compound dissolved in 10% 2-hydroxypropyl-β-cyclodextrin intraperitoneally. After 20 minutes, a supersonic washer was used to apply audio stimulus of at least 90 dB for one minute. The wild running (WR), clonic seizures (clonus), tonic seizures (tonus), and respiratory arrest (RA) were evaluated. The seizure suppressing action was evaluated from the rate or suppression of the average value of the seizure score found from 0=no response, 1=WR, 2=clonus, 3=tonus, and 4=RA.

Na+ channel = assay: Veratridine-induced sodium channel activity inhibiting action (membrane potential of synaptosomes, Rhodamine 6G); format: biochemical, Wistar rats; conditions: 0.1 μM of compound; rat brain synaptosomes, veratridine-induced depolarization
Method: Veratridine-induced Sodium Channel Activity Inhibiting Action
The membrane potential of the synaptosomes prepared from the brain membrane of Wistar rats (male, 10 to 12 weeks old) was measured by the method of Aiuchi et al. [T. Aiuchi et al: Biochimi. Biophys. Acta.

Q: Which inhibition in vivo at 10 mg/kg (DBA/2N mice) does the source give for `COc1ccc(C(=O)CN2CCC(c3ccc(Oc4ccccc4)cc3)CC2)cc1` [Compound 66, 1-[2-(4-methoxyphenyl)-2-oxo]ethyl-4-(4-phenoxyphenyl)piperidine] here?
A: Its inhibition in vivo at 10 mg/kg is 39.2%.

Q: What about the “Antiveratridine action (inhibiting rate %)” value (Na+ channel) of the same compound?
A: Its value is 19.6%.

Q: With `OC(COc1ccccc1)CN1CCC(c2ccc(Cc3ccc(F)cc3)cc2)CC1` (centres unmarked) [Compound 81, 4-[4-(4-fluorophenyl)methylphenyl]-1-(2-hydroxy-3-phenoxy)propylpiperidine] as the compound, how does the inhibition in vivo at 10 mg/kg (DBA/2N mice) read?
A: The inhibition in vivo at 10 mg/kg was 61%.

Q: And the “Antiveratridine action (inhibiting rate %)” value (Na+ channel)?
A: Its value is 24.1%.

Q: `Fc1ccc(Cc2ccc(N3CCN(CCCCOc4ccc(F)cc4)CC3)cc2)cc1` [Compound 57, 4-[4-(4-fluorophenyl)-oxybutyl]-1-[4-(4-fluorophenyl)methylphenyl]pinerazine] was tested. Which “Antiveratridine action (inhibiting rate %)” value (Na+ channel) did it give?
A: The value was 25%.

Q: Which results are given for `COc1ccc(/C=C/CN2CCN(c3ccc(Cc4ccc(F)cc4)cc3)CC2)c(OC)c1OC` [Compound 48, (E)-1-[4-(4-fluorophenyl)-methylphenyl]-1-[3-(2,3,4-trimethoxyphenyl)-2-propenyl]-piperazine]?
A: inhibition in vivo at 10 mg/kg (DBA/2N mice): 53.6%; Antiveratridine action (inhibiting rate %) (Na+ channel): 20.5%

Q: Which inhibition in vivo at 10 mg/kg (DBA/2N mice) does the source give for `COc1cc(/C=C/CN2CC=C(c3ccc(Oc4ccccc4)cc3)CC2)ccc1O` [Compound 24, (E)-1-[3-(4-hydroxy-3-methoxyphenyl)-2-propenyl]-4-(4-phenoxyphenyl)-1,2,3,6-tetrahydropyridine] here?
A: Its inhibition in vivo at 10 mg/kg is 49.1%.

Q: `Fc1ccc(/C=C/CN2CCC(c3ccc(Oc4ccccc4)cc3)CC2)cc1` [Compound 25, (E)-1-[3-(4-fluorophenyl)-2-propenyl]-4-(4-phenoxyphenyl)piperidine] was tested. Which inhibition in vivo at 10 mg/kg (DBA/2N mice) did it give?
A: The inhibition in vivo at 10 mg/kg was 72%.

Q: With `C1=C(c2ccc(Oc3ccccc3)cc2)CCN(C/C=C/c2ccccc2)C1` [Compound 18, (E)-4-(4-phenoxyphenyl)-1-(3-phenyl-2-propenyl)-1,2,3,6-tetrahydropyridine] as the compound, how does the inhibition in vivo at 10 mg/kg (DBA/2N mice) read?
A: The inhibition in vivo at 10 mg/kg was 27.9%.

Q: What about the “Antiveratridine action (inhibiting rate %)” value (Na+ channel) of the same compound?
A: Its value is 16%.

Q: With `O=C(CCCN1CCN(c2ccc(Cc3ccc(F)cc3)cc2)CC1)c1ccc(F)cc1` [Compound 58, 1-[4-(4-fluorophenyl)methylphenyl]-4-[4-((4-fluorophenyl)-4-oxo)butyl]-piperazine] as the compound, how does the inhibition in vivo at 10 mg/kg (DBA/2N mice) read?
A: Its inhibition in vivo at 10 mg/kg is 66%.

Q: And the “Antiveratridine action (inhibiting rate %)” value (Na+ channel)?
A: Its value is 33.9%.

Q: Which inhibition in vivo at 10 mg/kg (DBA/2N mice) does the source give for `Fc1ccc(Cc2ccc(C3CCN(CC4(c5ccccc5)CC4)CC3)cc2)cc1` [Compound 62, 4-[4-(4-fluorophenyl)-methylphenyl]-1-(1-phenyl-1-cyclopropane)methyl-piperidine] here?
A: Its inhibition in vivo at 10 mg/kg is 44%.

Q: And the “Antiveratridine action (inhibiting rate %)” value (Na+ channel)?
A: The value was 23.9%.

Q: `Fc1ccc(Cc2ccccc2C2=CCN(C/C=C/c3ccccc3)CC2)cc1` [Compound 34, (E)-4-[2-(4-fluorophenyl)methylphenyl]-1-(3-phenyl-2-propenyl)-1,2,3,6-tetrahydropyridine] was tested. Which inhibition in vivo at 10 mg/kg (DBA/2N mice) did it give?
A: The inhibition in vivo at 10 mg/kg was 34%.

Q: With `COc1ccc(CN2CCN(c3ccc(Cc4ccc(F)cc4)cc3)CC2)c(OC)c1OC` [Compound 56, 1-[4-(4-fluorophenyl)-methylphenyl]-4-[(2,3,4-trimethoxyphenyl)methyl]piperazine] as the compound, how does the inhibition in vivo at 10 mg/kg (DBA/2N mice) read?
A: Its inhibition in vivo at 10 mg/kg is 50%.

Q: How did the inhibition in vivo at 10 mg/kg (DBA/2N mice) turn out when `OC(CN1CCC(c2ccc(Oc3ccccc3)cc2)CC1)c1ccc(Cl)cc1` (centres unmarked) [Compound 78, 1-[2-(4-chlorophenyl)-2-hydroxy]ethyl-4-(4-phenoxyphenyl)piperidine] was run?
A: Its inhibition in vivo at 10 mg/kg is 66%.

Q: What about the “Antiveratridine action (inhibiting rate %)” value (Na+ channel) of the same compound?
A: The value was 44.4%.

Q: `O=C(CN1CCN(c2ccc(Cc3ccc(F)cc3)cc2)CC1)c1ccccc1` [Compound 82, 1-[4-(4-fluorophenyl)methylphenyl]-4-(2-phenyl-2-oxo)ethylpiperazine] was tested. Which inhibition in vivo at 10 mg/kg (DBA/2N mice) did it give?
A: Its inhibition in vivo at 10 mg/kg is 71.9%.

Q: What about the “Antiveratridine action (inhibiting rate %)” value (Na+ channel) of the same compound?
A: The value was 16.9%.

Q: For `c1ccc(Cc2ccccc2N2CCN(CC3CC3c3ccccc3)CC2)cc1` (stereo not drawn) [Compound 52, (E)-1-(2-benzylphenyl)-4-[trans-(2-phenyl)cyclopropylmethyl]piperazine], which inhibition in vivo at 10 mg/kg (DBA/2N mice) is on record?
A: The inhibition in vivo at 10 mg/kg was 20%.

Q: With `OC(CN1CCC(c2ccc(Oc3ccccc3)cc2)CC1)c1ccccc1` (centres unmarked) [Compound 77, 1-(2-hydroxy-2-phenyl)-ethyl-4-(4-phenoxyphenyl)piperidine] as the compound, how does the inhibition in vivo at 10 mg/kg (DBA/2N mice) read?
A: Its inhibition in vivo at 10 mg/kg is 85.7%.

Q: What about the “Antiveratridine action (inhibiting rate %)” value (Na+ channel) of the same compound?
A: Its value is 31.1%.

Q: Which results are given for `ON=C(CN1CCC(c2ccc(Oc3ccccc3)cc2)CC1)c1ccccc1` [Compound 74, 4-(4-phenoxyphenyl)-1-(2-phenyl-2-hydroxyimino)ethylpiperidine]?
A: inhibition in vivo at 10 mg/kg (DBA/2N mice): 44.4%; Antiveratridine action (inhibiting rate %) (Na+ channel): 14.6%

Q: Which inhibition in vivo at 10 mg/kg (DBA/2N mice) does the source give for `Fc1ccc(Cc2ccc(C3=CCN(C/C=C/c4ccccc4)CC3)cc2)cc1` [Compound 31, (E)-4-[4-(4-fluorophenyl)-methylphenyl]-1-(3-phenyl-2-propenyl)-1,2,3,6-tetrahydropyridine] here?
A: The inhibition in vivo at 10 mg/kg was 48%.

Q: Which inhibition in vivo at 10 mg/kg (DBA/2N mice) does the source give for `Fc1ccc(OCCN2CCC(c3ccc(Oc4ccccc4)cc3)CC2)cc1` [Compound 27, 1-[2-(4-fluorophenyl)oxyethyl]-4-(4-phenoxyphenyl)piperidine] here?
A: The inhibition in vivo at 10 mg/kg was 34%.

Q: For `O=C(CN1CCC(c2ccc(Oc3ccccc3)cc2)CC1)c1ccc(Cl)cc1` [Compound 68, 1-[2-(4-chlorophenyl)-2-oxo]ethyl-4-(4-phenoxyphenyl]piperidine], which “Antiveratridine action (inhibiting rate %)” value (Na+ channel) is on record?
A: Its value is 38.9%.

Q: Which results are given for `O=C(CN1CCC(c2ccc(Oc3ccccc3)cc2)CC1)c1ccccc1` [Compound 64, 4-(4-phenoxyphenyl)-1-(2-phenyl-2-oxo)ethylpiperidine]?
A: inhibition in vivo at 10 mg/kg (DBA/2N mice): 94%; Antiveratridine action (inhibiting rate %) (Na+ channel): 34.5%

Q: With `COc1ccc(Cc2ccc(C3CCN(CC(=O)c4ccccc4)CC3)cc2)cc1` [Compound 70, 4-[4-(4-methoxyphenyl)methylphenyl]-1-(2-phenyl-2-oxo)ethylpiperidine] as the compound, how does the inhibition in vivo at 10 mg/kg (DBA/2N mice) read?
A: The inhibition in vivo at 10 mg/kg was 73.9%.

Q: Which results are given for `COc1ccc(CN2CCC(c3ccc(Oc4ccccc4)cc3)CC2)c(OC)c1OC` [Compound 29, 4-(4-phenoxyphenyl)-1-[(2,3,4-trimethoxyphenyl)methyl]piperidine]?
A: inhibition in vivo at 10 mg/kg (DBA/2N mice): 66.2%; Antiveratridine action (inhibiting rate %) (Na+ channel): 9.9%

Q: How did the inhibition in vivo at 10 mg/kg (DBA/2N mice) turn out when `Fc1ccc(OCCCCN2CCC(c3ccc(Oc4ccccc4)cc3)CC2)cc1` [Compound 28, 1-[4-(4-fluorophenyl)-oxybutyl]-4-(4-phenoxyphenyl)piperidine] was run?
A: The inhibition in vivo at 10 mg/kg was 56.9%.

Q: What about the “Antiveratridine action (inhibiting rate %)” value (Na+ channel) of the same compound?
A: The value was 38%.

Q: With `O=C(CN1CCC(c2ccc(Cc3ccc(F)cc3)cc2)CC1)c1ccccc1` [Compound 63, 4-[4-(4-fluorophenyl)methylphenyl]-1-(2-phenyl-2-oxo)ethylpiperidine] as the compound, how does the inhibition in vivo at 10 mg/kg (DBA/2N mice) read?
A: The inhibition in vivo at 10 mg/kg was 76%.

Q: And the “Antiveratridine action (inhibiting rate %)” value (Na+ channel)?
A: The value was 31.1%.

Q: `C(=C\c1ccccc1)/CN1CCN(c2ccccc2Oc2ccccc2)CC1` [Compound 42, (E)-1-(2-phenoxyphenyl)-4-(3-phenyl-2-propenyl)piperazine] was tested. Which inhibition in vivo at 10 mg/kg (DBA/2N mice) did it give?
A: The inhibition in vivo at 10 mg/kg was 60%.

Q: With `c1ccc(CCCN2CCC(c3ccc(Oc4ccccc4)cc3)CC2)cc1` [Compound 22, 4-(4-phenoxyphenyl)-1-(3-phenylpropyl)piperidine] as the compound, how does the inhibition in vivo at 10 mg/kg (DBA/2N mice) read?
A: Its inhibition in vivo at 10 mg/kg is 85.7%.

Q: For `CC(C(=O)c1ccccc1)N1CCC(c2ccc(Oc3ccccc3)cc2)CC1` (centres unmarked) [Compound 69, 1-(1-benzoylethyl)-4-(4-phenoxyphenyl)piperidine], which inhibition in vivo at 10 mg/kg (DBA/2N mice) is on record?
A: The inhibition in vivo at 10 mg/kg was 64.7%.

Q: What about the “Antiveratridine action (inhibiting rate %)” value (Na+ channel) of the same compound?
A: Its value is 11.2%.

Q: What does the source list for `COc1ccc(CN2CCN(c3ccc(Oc4ccccc4)cc3)CC2)c(OC)c1OC` [Compound 46, 1-(4-phenoxyphenyl)-4-[(2,3,4-trimethoxyphenyl)methyl]piperazine]?
A: inhibition in vivo at 10 mg/kg (DBA/2N mice): 27.9%; Antiveratridine action (inhibiting rate %) (Na+ channel): 11.7%

Q: What does the source list for `COc1cc(/C=C/CN2CCC(c3ccc(Oc4ccccc4)cc3)CC2)ccc1O` [Compound 19, (E)-1-[3-(4-hydroxy-3-methoxyphenyl)-2-propenyl]-4-(4-phenoxyphenyl)piperidine]?
A: inhibition in vivo at 10 mg/kg (DBA/2N mice): 53.6%; Antiveratridine action (inhibiting rate %) (Na+ channel): 26.1%

Q: What does the source list for `O=C(CN1CCC(c2ccc(Oc3ccccc3)cc2)CC1)c1ccc(F)cc1` [Compound 67, 1-[2-(4-fluorophenyl)-2-oxo]ethyl-4-(4-phenoxyphenyl)piperidine]?
A: inhibition in vivo at 10 mg/kg (DBA/2N mice): 37%; Antiveratridine action (inhibiting rate %) (Na+ channel): 15%

Q: With `C(=C\c1ccccc1)/CN1CCN(c2ccccc2Cc2ccccc2)CC1` [Compound 51, (E)-1-(2-benzylphenyl)-4-(3-phenyl-2-propenyl)piperazine] as the compound, how does the inhibition in vivo at 10 mg/kg (DBA/2N mice) read?
A: Its inhibition in vivo at 10 mg/kg is 71.4%.

Q: Which inhibition in vivo at 10 mg/kg (DBA/2N mice) does the source give for `O=C1c2ccccc2CC1N1CCC(c2ccc(Oc3ccccc3)cc2)CC1` (centres unmarked) [Compound 71, 1-(1-oxoindan-2-yl)-4-(4-phenoxy)phenylpiperidine] here?
A: The inhibition in vivo at 10 mg/kg was 32%.

Q: How did the inhibition in vivo at 10 mg/kg (DBA/2N mice) turn out when `Fc1ccc(Cc2ccc(N3CCN(CC4CC4c4ccccc4)CC3)cc2)cc1` (stereo not drawn) [Compound 55, (E)-1-[4-(4-fluorophenyl)-methylphenyl]-4-[trans-(2-phenyl)cyclopropylmethyl]-piperazine] was run?
A: The inhibition in vivo at 10 mg/kg was 62%.

Q: Which inhibition in vivo at 10 mg/kg (DBA/2N mice) does the source give for `Fc1ccc(OCCCCN2CCN(c3ccc(Oc4ccccc4)cc3)CC2)cc1` [Compound 41, 4-[4-(4-fluorophenyl)-oxybutyl]-1-(4-phenoxyphenyl)piperazine] here?
A: The inhibition in vivo at 10 mg/kg was 42.7%.

Q: What about the “Antiveratridine action (inhibiting rate %)” value (Na+ channel) of the same compound?
A: The value was 20.8%.
